Assay results published in US20260242418A1, “CYCLIC PEPTIDES WITH ANTIBACTERIAL ACTIVITY AGAINST MULTIDRUG RESISTANT (MDR) PATHOGENS” (priority 2022, published 2026).
Converted amounts (≈) assume the structure as drawn. Like-named read-outs stand apart in the source and are kept apart here.

How the values were obtained:
[1] = system: Pseudomonas aeruginosa; type: cell-based
Source text: Minimum Inhibitory Concentration (MIC) of a peptide of SEQ D NO: 4 (abbreviated PLP-3) and colistin against a collection of clinically relevant and commercially available bacterial strains was obtained via broth microdilution. The protocol for antimicrobial activity determination, detailed below, consisted in a modification of Clinical & Laboratory Standards Institute (CLSI) Guidelines.
MIC is the value defined as the lowest concentration of an antimicrobial, in these tests either PLP-3 or colistin, which inhibits the macroscopic growth of a bacterial strain after 18-22 h incubation at 37° C. The results from these assays are obtained via visual identification of the bacterial bottom at the end of the wells of the testing plate. Since the wells contain decreasing concentrations of the compounds, the final result is indicated as a concentration, MIC, expressed in μg/mL of the agent (in this case PLP-3 or colistin).
Bacterial strains were streaked in Columbia Agar plates (Columbia Agar with 5% Sheep Blood 90 mm Stacker plates, BD) and incubated overnight at 37° C. Polypropylene round bottomed 96-well plates were filled with 50 μL/well of Mueller-Hinton Broth (MHB, CM0405, 500 g, ThermoFisher Scientific™ Oxoid™) and 50 μL of either colistin or PLP-3 (at 4× the chosen initial concentration of the test) were added to the first well of each row of the plate followed by serial dilutions up until the 10th column of the plate.
Finally, strain inoculums were prepared by diluting 1:100 0.5 McFarland solutions in MHB. Plates were then inoculated with 50 μL of the inoculums and covered with film before 18 to 22 h incubation at 37 C.
Three biological and three technical replicates were performed per strain.
Broth microdilution testing of 15 strains of each species provided MIC50 and […] values (Table 4). Strains were either from clinical origin, relevant to current clinical situation, or commercially available strains belonging to the American Type Culture Collection (ATCC), namely: A. baumannii 17978 and 19606, K. pneumoniae 13883 and P. aeruginosa 27853.
This panel represents an example of relevant MDR, colistin resistant and colistin susceptible strains from which to compare results. The minimum inhibitory concentration (MIC) is the lowest concentration of a chemical, usually a drug, which prevents visible growth of a bacterium or bacteria. MIC50 represents the antimicrobial concentration value that inhibits the growth of 50% of the bacterial strains and […] of each species from the tested panel of strains. Being colistin both a peptide and a last-resource antibiotic, it was included in these assays for comparison against a commercially available antibiotic.
P. aeruginosa ATCC 27853 strain (commercially available from the American Type Collection Culture) was used as control by performing MICs to colistin and PLP-3 in all broth microdilution assays

[2] = system: A. baumannii; type: cell-based; details: for Folds: with vs w/o albumin
Method: (§1) To assess antimicrobial activity of PLP3 in a physiological relevant environment, MICs were performed at physiological human albumin concentrations. To this end, Mueller-Hinton broth (MHB) was supplemented with 40 mg/mL human albumin (A1653-5G, Merck) and broth microdilution protocol was used. SEQ ID NO: 4 (PLP-3) and colistin stocks were prepared both in MHB and albumin supplemented MHB. These were used for comparison of MICs in the presence or absence of albumin, and as a control.

[3] = system: P. aeruginosa; type: cell-based; details: for Folds: with vs w/o albumin
Method: as §1

[4] = in vitro; type: cell-based, human; details: human, haemolysis % relative to 1% TX-100 at 64 ug/mL PLP-3
Method: (§2) A 50% haematocrit solution (1:1 PBS 1×, P5493, 1 L, Sigma) was obtained from a commercially available human blood sample by performing 3 consecutive washes with PBS 1× and centrifuging at 2600 rpm for 10 minutes between washes. A final 4% erythrocyte solution was prepared with PBS 1× and chilled on ice until used.
(§3) Colistin and SEQ ID NO: 4 (PLP-3) stocks were prepared at 256 μg/mL in MHB and left at 4 C until used.
(§4) 96-well, round bottom plates were filled with 50 μL PBS 1× but for the haemolysis controls, which were left empty. 50 μL of each antimicrobial were added to the first column of each plate and serial dilution was performed. Then 50 μL of 4% erythrocyte solution were added to all wells of the plate and gently resuspended. Positive control consisted in PBS 1× and erythrocytes while haemolysis control was settled at 1% Triton™ X-100 (TX-100, 9002-93-1, 100 mL, Sigma) and erythrocytes.
(§5) Plates were incubated for 4 h at 37° C. and then centrifuged at 1500 rpm 5 min. […] An EPOCH™ spectrophotometer was used to read the plates at 450 nm.
(§6) Haemolysis assays of human erythrocytes were done using 1% TX-100 as a control for total haemolysis and absorbance values of PLP-3 were represented in relation to total haemolysis (TX-100 values).

[5] = system: human erythrocytes; test: in vitro; type: cell-based; details: red cells of human
Method: as §2, §3, §4, §5, §6

[6] = panel of 15 P. aeruginosa strains

## CC(C)C[C@@H]1NC(=O)[C@H](CCCNC(=N)N)NC(=O)[C@H](CCCNC(=N)N)NC(=O)[C@H](CCCNC(=N)N)NC(=O)[C@H]2CCCN2C(=O)[C@H](CCCNC(=N)N)NC(=O)[C@H](CCCNC(=N)N)NC(=O)[C@H](C(C)C)NC(=O)[C@@H]2CSSC[C@H](NC1=O)C(=O)N[C@@H](Cc1ccccc1)C(=O)N[C@@H](C(C)C)C(=O)N[C@@H](CCCNC(=N)N)C(=O)N1CCC[C@@H]1C(=O)N[C@@H](CCCCN)C(=O)N[C@@H](Cc1ccccc1)C(=O)N[C@@H](C(C)C)C(=O)N[C@@H](C(C)C)C(=O)N2 [PLP-3, cyclo[RRRLCFVRPKFVVCVRRP]]
[1]
  MIC range: 1 to 8 µg/mL
[1]; [6]
  MIC50: 4 µg/mL (≈ 1.76 µM)
  MIC90: 8 µg/mL (≈ 3.53 µM)
[2]; strain ATCC 17978
  MIC With Albumin 40 mg/mL: 4 µg/mL
  MIC w/o Albumin: 1 µg/mL (≈ 0.441 µM)
  Folds: 2
[2]; strain CR17
  MIC With Albumin 40 mg/mL: 2 µg/mL
  MIC w/o Albumin: 1 µg/mL (≈ 0.441 µM)
  Folds: 1
[3]; strain ATCC 27853
  MIC With Albumin 40 mg/mL: 8 µg/mL
  MIC w/o Albumin: 2 µg/mL (≈ 0.882 µM)
  Folds: 2
[3]; strain R2
  MIC With Albumin 40 mg/mL: 32 µg/mL
  MIC w/o Albumin: 4 µg/mL (≈ 1.76 µM)
  Folds: 3
[4]
  hemolysis at 4 h, 64 ug/mL: 62.6%
[5]
  IC50 from the haemolysis curve: 48.53 µg/mL (≈ 21.4 µM)
